This is an account of results in patent publication US4931270A, “Method for detecting dopaminergic diseases using fluorine-18 radiolabelled D2 dopamine receptor ligands” (Nelson Research & Development, priority 1988, dated 1990).

Molecules are shown by their SMILES.

For one assay, the target named is T1, D1 -dopamine (Bos taurus, UniProt Q95136).
T1 construct: Membranes derived from bovine striatum (for assaying dopamine receptors); from tissue; host or cells: bovine striatum membranes
As to the kind of experiment: Radioligand binding (displacement of 3H-SCH23390), bovine striatal membranes. The settings on record: bovine striatum membranes. Here is the method:
(§1) The selectivity of 2-[N-3-fluoropropyl-N-2-(2 thienyl)ethylamine]-5-hydroxytetralin has been investigated using radioligand binding assays to determine the binding affinity at different receptor types, namely D1 and D2 dopamine and α-adrenergicreceptor sites.
(§2) Membranes derived from bovine striatum (for assaying dopamine receptors) and rat cerebral cortex (for assaying α-adrenergic receptors) were prepared as follows. The tissue was homogenized using a tissue disrupter and centrifuged. The pellet was washed by resuspension and centrifugation. The bovine striatal membranes were […] and thawed just prior to use. […]

For a further assay, the target named is α-adrenergic. As to the kind of experiment: Radioligand binding (displacement of 3H-prazosin), rat cerebral cortex membranes. Here is the method:
as §1, §2

Another assay concerns the target T2, D2 -dopamine (Bos taurus, UniProt P20288).
T2 construct: Membranes derived from bovine striatum (for assaying dopamine receptors); from tissue; host or cells: bovine striatum membranes
As to the kind of experiment: Radioligand binding (displacement of 3H-N-0437), bovine striatal membranes. As to the method:
as §1
Membranes derived from bovine striatum (for assaying dopamine receptors) and rat cerebral cortex (for assaying α-adrenergic receptors) were prepared as follows. The tissue was homogenized using a tissue disrupter and centrifuged. The pellet was washed by resuspension and centrifugation. The bovine striatal membranes were […] and thawed just prior to use.
The radioligands ^3 H-prazosin, H^3 [((R)-(+)-8 chloro-2, 3, 4, 5-tetrahydro-3-methyl-5-phenyl-H-3-benzazepin-7-ol](^3 H-SCH23390), and H^3 [5-hydroxy-2-(N-n-propyl-N-2-[2-thienyl]ethylamino)tetralin] (^3 H-N-0437) were used to label α-adrenegic, D1 -dopamine and D2 -dopamine receptors, respectively. Increasing concentrations of 2-[N-3-fluoropropyl-N-2-(2-thienyl)ethylamine]-5-hydroxy-tetralin were used to displace the binding of these radioligands from their respective receptors. Competition binding curves were hand drawn to fit the data, and IC50 values were determined graphically. The IC50 value indicates the concentration of test drug required to displace from attachment at the receptor site of interst 50 percent of the ligands of known affinity already in attachment there.

T2 sequence (P20288 whole entry): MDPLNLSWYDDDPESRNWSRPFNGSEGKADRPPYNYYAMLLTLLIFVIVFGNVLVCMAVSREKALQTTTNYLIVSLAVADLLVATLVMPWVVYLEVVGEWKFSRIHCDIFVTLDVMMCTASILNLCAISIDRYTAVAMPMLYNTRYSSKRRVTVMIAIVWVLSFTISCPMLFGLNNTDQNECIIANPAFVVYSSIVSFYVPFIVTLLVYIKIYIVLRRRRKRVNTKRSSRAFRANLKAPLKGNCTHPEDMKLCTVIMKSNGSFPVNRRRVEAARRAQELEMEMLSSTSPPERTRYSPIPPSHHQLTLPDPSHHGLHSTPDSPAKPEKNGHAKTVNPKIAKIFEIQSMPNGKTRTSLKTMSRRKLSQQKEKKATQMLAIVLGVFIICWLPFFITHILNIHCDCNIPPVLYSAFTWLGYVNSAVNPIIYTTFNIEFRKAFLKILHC
T1 sequence (Q95136 whole entry): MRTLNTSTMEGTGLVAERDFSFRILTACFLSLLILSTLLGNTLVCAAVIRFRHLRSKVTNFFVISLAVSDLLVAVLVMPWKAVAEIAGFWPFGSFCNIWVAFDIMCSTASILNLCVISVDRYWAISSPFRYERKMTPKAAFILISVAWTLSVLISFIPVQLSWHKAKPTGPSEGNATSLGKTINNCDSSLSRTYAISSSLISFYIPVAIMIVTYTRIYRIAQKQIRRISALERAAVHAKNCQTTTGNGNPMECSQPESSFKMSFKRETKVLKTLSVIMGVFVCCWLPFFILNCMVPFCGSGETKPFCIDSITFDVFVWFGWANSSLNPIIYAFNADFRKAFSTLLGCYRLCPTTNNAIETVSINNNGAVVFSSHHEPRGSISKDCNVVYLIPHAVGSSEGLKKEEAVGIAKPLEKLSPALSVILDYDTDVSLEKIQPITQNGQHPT

With `Oc1cccc2c1CCC(N(CCCF)CCc1cccs1)C2` (stereo not drawn) [2-[N-3-Fluoropropyl-N-2-(2-thienyl)ethylamino]-5-hydroxytetralin], the IC50 at D1 -dopamine is over 10 µM; at α-adrenergic, 5.7 µM; on D2 -dopamine (D2 -dopamine, 3H-N-0437, bovine striatum membranes), 0.00103 ± 0.00049 µM. For the same compound, at D2 -dopamine, the “affinity for dopamine D2 receptor sites (in words)” value is “unexpectedly high affinity”. On D2 -dopamine (D2 versus α-adrenergic), the “times more potent in binding to D2 -dopamine receptors than to α-adrenergic receptors” value is on record as “more than 5000 times”. In addition, the “selectivity for D2 -dopamine receptors (in words)” value on D2 -dopamine (versus D1 and α-adrenergic) is “selective for D2 -dopamine receptors”.
